Reference: patent publication US20190016686A1, “SALTS OF COMPOUNDS HAVING A BENZIMIDAZOLIC STRUCTURE, USES AND PROCESS FOR THE PREPARATION THEREOF” (ISTITUTO SUPERIORE DI SANITÀ, priority 2015, published 2019)
Converted amounts (≈) assume the structure as drawn. Read-outs that look alike come from different tables or passages of the source.

Experiments:
[1] = cited from earlier work
[2] = solubility in solvents (ethanol, methanol, water, n-hexane); format: physicochemical; conditions: salt of the invention
[3] = system: cell lines of glioblastoma multiforme; conditions: published results; cited from earlier work
[4] = system: cell lines of ovarian carcinoma; conditions: published results; cited from earlier work
[5] = literature value (J Pharm Sci 94(5), 2005)

CCC[S+]([O-])c1ccc2[nH]c(NC(=O)OC)nc2c1 (centres unmarked) [ABZ-SO, Albendazole sulphoxide]
solubility in ethanol [1, 5]: 1360 µg/mL (≈ 4830 µM)
solubility in ethanol ([1]; non-salified sulphoxide, stated as known): circa 1 mg mL^−1
solubility in methanol ([1]; methanol, in words): slightly soluble
solubility in n-hexane ([1]; n-hexane, in words): practically insoluble
solubility in water ([1]; in words): practically insoluble
solubility in water ([1]; in words, listed as RBZ): poorly soluble
solubility in water [1, 5]: 62 µg/mL (≈ 220 µM)

CCC[S+]([O-])c1ccc2[n-]c(NC(=O)OC)nc2c1.[Na+] (centres unmarked) [ABZ-SO—Na]
solubility in ethanol ([2]; ethanol): about 30 mg mL^−1
solubility in methanol ([2]; methanol): about 30 mg mL^−1

COC(=O)Nc1nc2ccc(C(=O)c3ccccc3)cc2[nH]1 [MBZ, mebendazole]
cytotoxicity [3]: demonstrated cytotoxicity
cytotoxicity [4]: demonstrated cytotoxicity
